According to US12383562B2, “Application of metal complex” (Hunan Fangshengtai Medical Technology Co., Ltd., priority 2019, dated 2025):

Test system: mice with inflammatory pain
Experiment: Analgesic activity: CFA-induced inflammatory pain in mice, Von Frey test (paw withdrawal threshold)
Format: in vivo, Kunming mice
Settings: for response to the compound (pain threshold): CFA mice, intraperitoneal administration, approximately 0.03 mmol/kg (9, 10 or 11 mg/kg), seven mice; for change of paw withdrawal threshold after injection of drug: drug injected 24 hours after CFA, mice with inflammatory pain
Procedure: The analgesic assays of three vanadium compounds (bis(maltolato)oxovanadium, bis(ethylmaltolato)oxovanadium, and bis(kojato)oxovanadium) in mice are presented below. Some of the results are shown in FIG. 1, where S1 is bis(maltolato)oxovanadium, S2 is bis(ethylmaltolato)oxovanadium, S3 is bis(kojato)oxovanadium, and thepositive group (i.e., a positive control group) is aspirin group.
10 μl of complete Freund's adjuvant (CFA) was injected subcutaneously into the plantar surface of the left hindpaws of mice (♂ Kunming mice, 22-40 g) to produce inflammation. Von Frey tests were performed at 24 hours after injection or later to determine pain thresholds, i.e., under the guidance of a Dixon's Up-Down method, mice were induced with Von Frey fibers to have mechanical withdrawal of their hindpaws data were collected, and their 50% paw withdrawal thresholds (referred to as paw withdrawal threshold or PWT), namely the pain thresholds, were calculated. Afterwards, the mice were divided into a physiological saline group, a positive control group and a drug group, and injected intraperitoneally with 0.4 ml of physiological saline, 0.4 ml of aspirin (acetylsalicylic acid, or ASA) Tris-buffer solution at a concentration of 20 mg/ml and a mixed solution of a tested compound and 0.4 ml of cellulose solution (1%), respectively. Then, changes in the pain threshold were monitored with the Von Frey tests.

SMILES | response to the compound (pain threshold) | change of paw withdrawal threshold after injection of drug
Cc1occc(=O)c1[O][V](=[O])[O]c1c(C)occc1=O [S1, bis(maltolato)oxovanadium(IV)] | all seven mice showed a response to the compound with a general increase in pain threshold | significant increase in the paw withdrawal threshold
CCc1occc(=O)c1[O][V](=[O])[O]c1c(CC)occc1=O [S2, bis(ethylmaltolato)oxovanadium(IV)] | all seven mice showed a response to the compound with a general increase in pain threshold | significant increase in the paw withdrawal threshold
[O]=[V-2]12([O]C3=COC(CO)=CC3=[O+]1)[O]C1=COC(CO)=CC1=[O+]2 [S3, bis(kojato)oxovanadium(IV)] | all seven mice showed a response to the compound with a general increase in pain threshold | significant increase in the paw withdrawal threshold
